Source: ChEMBL document CHEMBL1201862, “PubChem BioAssay data set” (2004)
Calls of active or inactive are those of the source.

How the values were obtained:
[1] = molecular target: T1, Cytochrome P450 1A2 (Homo sapiens, UniProt P05177);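 note: PubChem cytochrome P450 panel assay, CYP1A2 panel member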
T1 sequence (P05177 whole entry): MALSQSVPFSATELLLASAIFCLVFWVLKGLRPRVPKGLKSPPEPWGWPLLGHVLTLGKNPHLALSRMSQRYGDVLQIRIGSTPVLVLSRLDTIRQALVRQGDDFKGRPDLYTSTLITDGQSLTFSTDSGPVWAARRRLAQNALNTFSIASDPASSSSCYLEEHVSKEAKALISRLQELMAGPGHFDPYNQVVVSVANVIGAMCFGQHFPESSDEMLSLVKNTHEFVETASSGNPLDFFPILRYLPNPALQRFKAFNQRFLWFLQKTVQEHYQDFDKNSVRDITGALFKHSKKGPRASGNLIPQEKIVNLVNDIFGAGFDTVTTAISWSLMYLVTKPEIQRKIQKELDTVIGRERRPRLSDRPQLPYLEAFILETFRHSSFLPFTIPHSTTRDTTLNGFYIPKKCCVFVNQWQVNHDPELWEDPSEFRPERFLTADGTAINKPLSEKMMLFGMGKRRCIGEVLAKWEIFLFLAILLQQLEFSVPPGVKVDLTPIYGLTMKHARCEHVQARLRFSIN

[2] = molecular target: Cytochrome P450 3A4 (Homo sapiens, UniProt P08684);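 note: CYP3A4 tested as one member of a cytochrome P450 panel screen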
Sequence of Cytochrome P450 3A4 (P08684 whole entry): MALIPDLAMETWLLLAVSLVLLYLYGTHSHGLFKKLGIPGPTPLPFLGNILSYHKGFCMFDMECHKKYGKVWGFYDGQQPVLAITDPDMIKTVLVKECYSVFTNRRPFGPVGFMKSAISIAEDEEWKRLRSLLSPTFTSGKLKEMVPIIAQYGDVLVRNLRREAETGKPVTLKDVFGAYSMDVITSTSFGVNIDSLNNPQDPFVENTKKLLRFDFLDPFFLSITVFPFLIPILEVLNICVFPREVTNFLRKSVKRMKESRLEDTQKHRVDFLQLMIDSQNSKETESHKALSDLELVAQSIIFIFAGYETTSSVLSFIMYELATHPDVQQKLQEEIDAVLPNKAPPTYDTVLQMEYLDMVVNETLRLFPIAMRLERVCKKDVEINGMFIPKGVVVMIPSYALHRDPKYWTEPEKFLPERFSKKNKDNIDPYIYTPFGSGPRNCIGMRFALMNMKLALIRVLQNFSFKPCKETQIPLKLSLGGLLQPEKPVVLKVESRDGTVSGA

[3] = molecular target: Cytochrome P450 2C9 (Homo sapiens, UniProt P11712)
Sequence of Cytochrome P450 2C9 (P11712 whole entry): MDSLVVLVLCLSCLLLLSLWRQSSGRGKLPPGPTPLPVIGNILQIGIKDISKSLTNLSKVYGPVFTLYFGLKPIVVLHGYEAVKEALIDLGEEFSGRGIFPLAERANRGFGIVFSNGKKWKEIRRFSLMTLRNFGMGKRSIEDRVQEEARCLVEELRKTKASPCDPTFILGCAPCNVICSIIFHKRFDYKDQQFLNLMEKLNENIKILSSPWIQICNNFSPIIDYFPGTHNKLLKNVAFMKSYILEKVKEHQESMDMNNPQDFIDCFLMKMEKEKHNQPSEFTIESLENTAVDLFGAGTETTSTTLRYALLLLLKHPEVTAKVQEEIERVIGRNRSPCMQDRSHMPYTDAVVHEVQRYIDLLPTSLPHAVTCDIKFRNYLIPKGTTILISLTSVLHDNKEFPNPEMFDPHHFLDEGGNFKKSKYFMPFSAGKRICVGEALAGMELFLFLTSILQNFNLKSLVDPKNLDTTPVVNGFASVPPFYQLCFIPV

[4] = test system: Streptococcus sp. 'group A'; experiment: Streptococcus pyogenes SK(-)GAS viability under kanamycin – luminescence, BacTiterGlo, confirmation, counter-screen for streptokinase expression inhibitor project, dose response (AID 1900); type: functional, organism-based
[5] = molecular target: T2, Streptokinase A (Streptococcus pyogenes serotype M1, UniProt P10520); experiment: viability-normalized secreted streptokinase activity reduction – plasminogen activation absorbance, OD405, dose response (AID 1914); type: functional, Streptococcus pyogenes M1 GAS;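 note: secreted streptokinase activity via plasminogen activation per viability signal from cell pellet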
T2 sequence (P10520 whole entry): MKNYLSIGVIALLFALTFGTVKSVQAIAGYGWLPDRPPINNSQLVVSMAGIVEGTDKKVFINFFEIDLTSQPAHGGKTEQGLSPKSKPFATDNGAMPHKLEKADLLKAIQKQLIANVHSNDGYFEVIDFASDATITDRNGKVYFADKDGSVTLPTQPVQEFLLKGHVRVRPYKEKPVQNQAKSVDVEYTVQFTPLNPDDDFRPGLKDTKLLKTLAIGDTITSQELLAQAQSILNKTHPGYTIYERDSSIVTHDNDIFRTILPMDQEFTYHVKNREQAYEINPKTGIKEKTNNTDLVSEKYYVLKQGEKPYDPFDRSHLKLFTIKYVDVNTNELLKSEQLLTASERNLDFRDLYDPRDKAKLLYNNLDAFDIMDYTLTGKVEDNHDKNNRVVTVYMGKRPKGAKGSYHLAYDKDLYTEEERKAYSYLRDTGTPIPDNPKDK

[6] = test system: Streptococcus; experiment: GAS UMAA2166 growth inhibition – luminescence, BacTiterGlo, counter-screen for streptokinase expression inhibitor project, dose response (AID 1915); type: functional, organism-based;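 note: potency for reduction of bacterial viability or growth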
[7] = Luminescence Cell-Based Dose Retest to Confirm Inhibitors of Cancer Stem Cells. [Related pubchem assays (depositor defined):AID2717, AID2721]; type: functional; conditions: Homo sapiens
[8] = molecular target: T3, RNA-binding protein pos-1 (Caenorhabditis elegans, UniProt G5EF15); experiment: disruptors of C. elegans POS-1 RNA interaction – biochemical, fluorescence polarization, dose response (AID 1964);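 note: purified POS-1 fused to maltose binding protein made in E. coli; potency of compounds blocking POS-1 binding to fluorescent RNA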
T3 sequence (G5EF15 whole entry): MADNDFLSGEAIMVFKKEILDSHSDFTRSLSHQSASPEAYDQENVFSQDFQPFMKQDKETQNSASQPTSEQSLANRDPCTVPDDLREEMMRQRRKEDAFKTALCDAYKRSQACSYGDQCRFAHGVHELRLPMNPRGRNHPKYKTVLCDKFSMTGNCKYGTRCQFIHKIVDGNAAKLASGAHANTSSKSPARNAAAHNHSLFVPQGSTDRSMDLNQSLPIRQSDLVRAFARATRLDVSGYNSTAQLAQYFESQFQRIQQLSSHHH

[9] = molecular target: T4, Zinc finger protein mex-5 (Caenorhabditis elegans, UniProt Q9XUB2); experiment: potency of MEX-5 RNA-binding blockers – biochemical, C. elegans, fluorescence polarization, dose response (AID 1960)
T4 sequence (Q9XUB2 whole entry): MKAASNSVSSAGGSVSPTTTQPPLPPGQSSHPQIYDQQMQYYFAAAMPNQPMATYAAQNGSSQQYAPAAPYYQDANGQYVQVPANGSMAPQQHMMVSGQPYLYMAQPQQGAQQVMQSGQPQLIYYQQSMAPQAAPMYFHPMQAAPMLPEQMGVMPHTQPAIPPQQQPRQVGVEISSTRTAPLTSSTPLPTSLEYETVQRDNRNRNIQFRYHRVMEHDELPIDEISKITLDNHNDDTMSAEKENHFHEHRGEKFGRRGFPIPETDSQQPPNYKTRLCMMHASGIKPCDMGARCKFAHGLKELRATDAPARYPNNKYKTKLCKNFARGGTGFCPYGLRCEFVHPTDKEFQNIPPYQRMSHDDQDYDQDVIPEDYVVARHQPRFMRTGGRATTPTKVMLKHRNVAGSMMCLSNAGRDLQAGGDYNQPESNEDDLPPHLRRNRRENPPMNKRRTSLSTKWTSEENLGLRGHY

[10] = Trypanosoma cruzi growth suppression in host cells – NIH3T3 host cells, beta-gal luminescence, confirmation (AID 2044); type: functional, cell-based;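 note: intracellular parasites grown in NIH/3T3 mouse fibroblasts as host cells; luminescent beta-galactosidase reporter signal from transgenic T. cruzi replicating inside host cells; inhibitors lower the luminescence signal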
[11] = NIH3T3 cell viability loss – ATP luminescence, mouse fibroblasts, counter-screen, dose response (AID 2010); type: functional, cell-based;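 note: cells exposed to compound for about 90 hours before reading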

## CCNc1ncc2nc(-c3cn(C)c4ccccc34)c(=O)n(C[C@H]3CCCO3)c2n1
[1]
  AC50: 10 µM (inconclusive)

## CC(C)(C)c1ccc(-c2nnc(SCc3ccc(Cl)cc3)n2-c2cccc(C(F)(F)F)c2)cc1
[1]
  AC50: 3.16 µM (inconclusive)
[2]
  AC50: 3.16 µM (inconclusive)
[3]
  AC50: 3.16 µM (inconclusive)

## COC(=O)N1CCC2(CCCN(C(=O)Nc3cccc(F)c3)C2)CC1
[2]
  AC50: 25.1 µM (inconclusive)

## COc1ccc(NC2=NN=C(c3c(C)[nH]c4ccccc34)CS2)cc1
[4]
  EC50: 3.9 µM (active)
[5]
  EC50: > 150 µM (not active)
[6]
  EC50: 13 µM (active)
[7]
  AC50: 7.35 µM (active)

## O=C1NC(=O)N(Cc2ccccc2)C(=O)/C1=C/NNC(=O)c1ccncc1
[8]
  EC50: 43.9 µM (active)
[9]
  EC50: 93.9 µM (active)

## CCc1ccc2c(-c3cccc(Cl)c3)nc(=O)n(CC)c2n1
[2]
  AC50: 31.6 µM (inconclusive)
[3]
  AC50: 39.8 µM (inconclusive)

## COc1cc2c(cc1NC(=O)CN(C)Cc1cccc(OC)c1OC)oc1ccccc12
[7]
  AC50: 2.86 µM (active)

## C[C@@]1(C(NC(=O)c2cccs2)c2ccc(-c3ccccc3)cc2)C[C@H]1C1CCCCC1 (some centres not stated)
[2]
  AC50: 20 µM (inconclusive)

## O=C(Nc1cccc(Cl)c1N1CCCCC1)c1ccc2c(c1)OCCO2
[4]
  EC50: 9.41 µM (active)
[5]
  EC50: > 150 µM (not active)
[6]
  EC50: > 150 µM (not active)
[7]
  AC50: 7.74 µM (active)

## O=C(O)c1ccccc1N(c1ccccc1)c1ccccc1
[8]
  EC50: > 300 µM (not active)
[9]
  EC50: > 300 µM (not active)

## CCCCCCCCCCCCCCCCCCc1ccc(C(=O)/C=C\C(=O)O)cc1
[1]
  AC50: 31.6 µM (inconclusive)

## Cc1ccc(CCNc2c([N+](=O)[O-])nn(-c3ccccc3)[n+]2[O-])cc1
[10]
  EC50: 1.15 µM (active)
[11]
  EC50: > 30 µM (not active)

## CC(C)CNC(=O)C1Nc2ccc(OC(F)(F)F)cc2C2C=CCC12 (configuration not stated)
[8]
  EC50: > 300 µM (not active)
[9]
  EC50: > 300 µM (not active)

## CC(NNc1ccccc1)=C1C(=O)NC(=O)NC1=O
[7]
  AC50: 1.02 µM (active)

## COC(=O)c1ccc(/C=C/c2c(-c3ccsc3)sc3ccccc23)cc1
[7]
  AC50: 4.12 µM (active)

## CN1CCN(c2ncc3nc(-c4cn(C)c5ccccc45)c(=O)n(C)c3n2)CC1
[1]
  AC50: 31.6 µM (inconclusive)
[2]
  AC50: 25.1 µM (inconclusive)
[3]
  AC50: 12.6 µM (inconclusive)

## CCN(CC)C1CCN(C(=O)c2cc(COc3ccc(F)cc3Cl)on2)C1 (configuration not stated)
[7]
  AC50: 1.21 µM (active)

## Cc1cccc(/C=C(\C(=O)C(=O)O)c2ccc3ccccc3n2)c1
[8]
  EC50: 27.2 µM (active)
[9]
  EC50: 22.9 µM (active)

## Cc1cccn2c(=O)c3cc(S(=O)(=O)c4ccccc4)c(=N)n(CC4CCCO4)c3nc12 (configuration not stated)
[8]
  EC50: 5.7 µM (inconclusive)
[9]
  EC50: > 300 µM (inconclusive)

## C/C(CCC(=O)OC[C@@H]1O[C@H](C#Cc2ccccc2)C=C[C@@H]1Oc1ccc(C)cc1)=N/OC[C@@H](O)COCc1ccco1
[3]
  AC50: 1.58 µM (inconclusive)

## Cc1cc(C)n(CCCNCC(O)c2ccccc2)n1 (configuration not stated)
[1]
  AC50: 39.8 µM (inconclusive)
[2]
  AC50: 35.5 µM (inconclusive)

## CC(=O)c1ccc(N2CCN(S(=O)(=O)c3cc(-c4cc(C)no4)ccc3C(C)C)CC2)cc1
[7]
  AC50: < 0.16 µM (active)

## COc1cc(OC)c2c(c1Cl)O[C@@]1(C2=O)[C@H](C)CC(=O)C[C@@H]1OC
[1]
  AC50: 15.8 µM (inconclusive)
[2]
  AC50: 12.6 µM (inconclusive)

## CC(C)(c1ccc(OC[C@@H]2CO2)cc1)c1ccc(OC[C@H]2CO2)cc1
[1]
  AC50: 31.6 µM (inconclusive)

## O=C(c1cccc(F)c1)N1CCC2(CCCN(Cc3ccncc3)C2)CC1
[1]
  AC50: 15.8 µM (inconclusive)
[2]
  AC50: 3.98 µM (inconclusive)

## O=C1NC(=O)C(=Cc2ccc(-c3ccc(S(=O)(=O)N4CCOCC4)cc3)o2)C(=O)N1
[8]
  EC50: 40.5 µM (active)
[9]
  EC50: 34.7 µM (active)

## O=S(=O)(c1ccccc1)N1CCCC1c1nc2ccccc2s1 (configuration not stated)
[1]
  AC50: 25.1 µM (inconclusive)
[2]
  AC50: 20 µM (inconclusive)

## O=C(c1ccco1)N1CCc2ccccc21
[8]
  EC50: > 300 µM (not active)
[9]
  EC50: 169 µM (active)

## CCOC(=O)N1CCN(CC(=O)c2ccc(O)cc2O)CC1
[8]
  EC50: 157 µM (active)
[9]
  EC50: 40.7 µM (active)

## CN(C)CCCN(C(=O)c1ccco1)c1nc2c(F)cc(F)cc2s1
[10]
  EC50: 0.101 µM (active)
[11]
  EC50: > 60 µM (not active)

## C1CCC(C(C[C@@H]2CCCCN2)C2CCCCC2)CC1
[1]
  AC50: 6.31 µM (inconclusive)

## CCC[C@@H]1C[C@@]1(CCC)C(NC(=O)c1ccccc1)c1cccc(Cl)c1 (some centres not stated)
[2]
  AC50: 3.98 µM (inconclusive)
[3]
  AC50: 20 µM (inconclusive)

## CC12CN3CC(C)(CN(C1)C31CCSCC1)C2=O
[1]
  AC50: 12.6 µM (inconclusive)

## O=C(N/N=C/c1c(O)ccc2ccccc12)Nc1ccccc1
[4]
  EC50: 8.29 µM (active)
[9]
  EC50: > 300 µM (not active)
[6]
  EC50: 8.39 µM (active)

## O=C(N/N=C/c1cn(-c2cccs2)nc1-c1ccccc1)c1ccc(O)cc1
[7]
  AC50: 8.96 µM (active)

## CN(C)c1ccc(/C=N/NC2=NS(=O)(=O)c3ccccc32)cc1
[8]
  EC50: 39.3 µM (active)
[9]
  EC50: > 300 µM (inconclusive)

## Cc1cc(SCC(=O)N/N=C/c2ccc(O)cc2O)nc2ccccc12
[10]
  EC50: 1.71 µM (active)
[11]
  EC50: 18.8 µM (active)
[7]
  AC50: 4.06 µM (active)

## O=C(NNC(=O)c1ccccc1[N+](=O)[O-])/C(O)=C/C(=O)c1ccccc1
[8]
  EC50: 70 µM (active)
[9]
  EC50: 1.11 µM (active)

## CCOC(=O)c1c(/N=C/C2C(=O)NC(=S)NC2=O)sc(C)c1C
[8]
  EC50: > 300 µM (not active)
[9]
  EC50: > 300 µM (inconclusive)

## COc1ccc(C(OCCN2CCC[C@@H](C(=O)O)C2)(c2ccc(OC)cc2)c2ccc(OC)cc2)cc1
[1]
  AC50: 31.6 µM (inconclusive)
[2]
  AC50: 31.6 µM (inconclusive)

## Cc1cccc(CN2CCN(C(c3ccccc3)c3ccc(Cl)cc3)CC2)c1 (configuration not stated) [MECLIZINE DIHCL]
[7]
  AC50: 3.57 µM (active)

## CCOC(=O)C1=C(C)NC(=S)NC1c1cccc(O)c1 (configuration not stated) [MONASTROL]
[1]
  AC50: 39.8 µM (inconclusive)
[3]
  AC50: 20 µM (inconclusive)
